Assay results from the supplement of paper PMC8882468.

Key:
Experiment in all cases: CTG-3D luminescence at 96 h relative to day-0 seeding control (ratio to day 0); higher = more growth / less cytotoxicity
[1] = test system: HCI-015 (organoid from a triple-negative breast cancer xenograft)
Method: (§1)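 PDX-derived breast cancer organoids (PDxO) in 384-well Matrigel plates, 8-point dose (0.000000625-100 uM), 96 h at 37 C; CellTiter-Glo 3D luminescence normalised to the day-0 seeding control (mean of 4 technical replicates over mean of 4 day-0 wells).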

[2] = test system: HCI-012 (organoid from a breast cancer xenograft)
Method: as §1

[3] = test system: HCI-002 (organoid from a triple-negative breast cancer xenograft)
Method: as §1

[4] = test system: HCI-003.E2 (organoid from an ER-positive breast cancer xenograft)
Method: as §1

[5] = test system: HCI-010 (organoid from a breast cancer xenograft)
Method: as §1

O=c1[nH]cc(F)c(=O)[nH]1 [5-fluorouracil]
CTG-3D luminescence at 96 h
Conditions	12.5 pM	0.00025 µM	0.005 µM	0.1 µM	1 µM	10 µM	100 µM	625 fM
[1], days in culture: 172	2.81	2	2.42	1.81	1.61	1.12	1.03	2.72
[1], days in culture: 191	2.43	1.43	1.71	0.853	1.35	0.995	0.865	1.37
[1], days in culture: 218	1.85	1.55	1.83	1.77	1.51	1.54	0.999	1.81
[2], days in culture: 143	2.31	2.12	1.8	2.12	2.07	1.71	0.413	1.96
[2], days in culture: 162	2.26	2.44	1.98	2.86	1.98	2.16	0.425	2.74
[2], days in culture: 201	2.32	2.31	1.56	1.69	2.12	1.21	1.08	1.85
[3], days in culture: 62	2.85	2.76	3.08	2.64	2.28	2.07	1.07	3.16
[3], days in culture: 82	2.94	2.81	2.15	2.78	2.66	1.66	1.08	3.04
[3], days in culture: 91	4.34	3.73	3.78	4.16	2.98	3.14	1.6	4.03
[3], days in culture: 191	2.53	2.58	2.45	2.4	2.34	1.91	1.22	2.43
[3], days in culture: 209	2.41	2.39	2.11	2.23	2.05	1.43	1.02	2.45
[3], days in culture: 227	6.3	6.54	6.31	7.6	5.98	3.45	1.93	6.49
[5], days in culture: 52	2.25	2.58	2.49	2.66	2.42	2.48	1.51	2.55
[5], days in culture: 65	1.67	1.68	1.87	1.73	1.83	1.73	1.18	1.66
[5], days in culture: 103	3.85	3.56	3.46	3.56	3.17	2.42	2.1	3.28

[4]
Conditions	CTG-3D luminescence at 96 h
12.5 pM	2.25
0.00025 µM	2.06
0.005 µM	1.93
0.1 µM	2.08
1 µM	1.85
10 µM	1.87
100 µM	0.993
625 fM	2.19
